From patent US12453709B2, “Compositions and methods for treating autism” (priority 2013, dated 2025)

Key:
patients with autism = test: Example 5: open-label evaluation of L1-79 (ABC-C, ADOS-2); assay type: in vivo, human
Description: L1-79 was used anecdotally in two patients followed by a more structured evaluation in 8 additional patients with autism. All patients were administered a starting dose of L1-79 of 90 mg TID for a minimum of 3 months. During the evaluation doses as high as 400 mg TID were used. A summary of data available on these 10 patients was provided in the Summary of Clinical Efficacy, Use of L1-79 to treat autism, submitted to IND 128673, sequence number 0005.

[1] = system: male patients diagnosed with autism; test: Study HT 02-121: ECGs and laboratory evaluations; assay type: in vivo, human
Description: (§1) The first five patients in each cohort were assigned to receive active medication in an open-label fashion. The patients were treated identically to the randomized patients with the following exceptions: (1) blood samples were drawn at baseline and 1 hour after dosing, and at Week 1, 2, 3 and 4 treatment visits 1 hour after dosing to determine the PK of L1-79, (2) EKGs were assessed at baseline and within 3-days prior to the Week 1, 2, 3 and 4 treatment visits as well as the 1-week and 4-week post-dosing follow-up visits, (3) vital signs, physical exams, and ASD assessments were performed at 1-week postdosing visit, (4) blood and urine samples were drawn at baseline and at Week 1, 2, 3 and 4 treatment visits 1 hour after dosing as well as the 1-week and 4-week post-dosing follow-up visits for safety analyses.
Safety was the primary endpoint of the study. The following safety endpoints were assessed: ECGs, physical exams, laboratory evaluations (hematology, chemistry and urinalysis), vital signs, including orthostatic blood pressure, adverse events (AEs) and concomitant medications.
Of note was the observation that half (50%) of the patients on L1-79 developed crystalluria compared to 30% of placebo treated patients. Of those that developed crystalluria during the study, approximately half (50%) had concentrated urine (specific gravity>1.025). […]

[2] = Study HT 02-121: L1-79 plasma concentrations (pharmacokinetics); assay type: in vivo; conditions: male, human, open-label 200 mg TID, read-out: plasma concentration at 1-hour post-dose on Day 1
Description: as §1
Pharmacokinetics were assessed in the open-label 100 mg and 200 mg TID patients. On Day 1, L-79 concentrations were assessed one-hour post dose. Subsequently, a random L1-79 plasma concentration was assessed at Week 1, Week 2, Week 3 and Week 4.

[3] = system: male patients diagnosed with autism; test: Study HT 02-121: Repetitive Behavior Scale-Revised (RBS-R); assay type: in vivo, human; conditions: for RBS-R Compulsive Behavior Mean Change from Baseline / RBS-R Compulsive Behavior Treatment effect versus placebo / RBS-R Compulsive Behavior change, median / RBS-R Restricted Behavior Mean Change from Baseline / RBS-R Restricted Behavior Treatment effect versus placebo / RBS-R Restricted Behavior change, median / RBS-R Ritualistic Behavior Mean Change from Baseline / RBS-R Ritualistic Behavior Treatment effect versus placebo / RBS-R Ritualistic Behavior change, median / RBS-R Sameness Behavior Mean Change from Baseline / RBS-R Sameness Behavior Treatment effect versus placebo / RBS-R Sameness Behavior change, median / RBS-R Self Injurious Behavior Mean Change from Baseline / RBS-R Self Injurious Behavior Treatment effect versus placebo / RBS-R Self Injurious Behavior change, median / RBS-R Stereotypic Behavior Mean Change from Baseline / RBS-R Stereotypic Behavior Treatment effect versus placebo / RBS-R Stereotypic Behavior change, median / RBS-R Total Score Mean Change from Baseline / RBS-R Total Score Treatment effect versus placebo / RBS-R Total Score change, median: Week 4/LOCF
Description: This clinical study was a randomized double-blind, placebo-controlled two-cohort, 4-week dose-escalation study that incorporated two open-label treatment groups to assess the safety and efficacy of L1-79 100 mg and 200 mg TID in male patients between the ages of […] years of age diagnosed with autism. The first cohort of 20 patients was comprised of three groups of patients: The first group of five patients received open-label L1-79 100 mg TID and underwent PK and EKG assessments. The remaining two groups in this cohort consisted of 15 patients randomized on a 2:1 basis to receive L1-79 100 mg TID or placebo. The PK and safety data from the open-label L1-79 100 mg TID group was submitted to FDA for review and acceptance before the second cohort was enrolled. The second cohort was procedurally identical to the first. The second cohort of 20 patients was comprised of the same three groups of patients but a dose of 200 mg TID was used instead of 100 mg TID. The key inclusion criteria were as follows: (1) males between 13 and 21 years of age, (2) DSM-5 compliant diagnosis of autism spectrum disorder, confirmed by the Autistic Diagnosis Interview Review (ADIR), and by an ADOS-2 score consistent with a diagnosis of autism, (3) must have been stable on no more than one concomitant medication and no planned changes in psychosocial interventions during the study.
The primary efficacy endpoint was the determination of the clinical improvement by the investigator as documented by the Clinical Global Impression (CGI) rating scales. Additional efficacy endpoints included: (1) changes from baseline in the Socialization and Communication Domains of the Vineland Adaptive Behavior Scales, Second Edition (VABS II) parent/caregiver rating form, (2) changes from baseline in the ADOS-2 Total Score and subscores, (3) changes in the Social Responsiveness Scale, Second Edition (SRS-2) Total Score and subscales, (4) changes in the ABC-C domains, (5) changes in the Repetitive Behavior Scale-Revised (RBS-R) Total Score and subscales. Given the exploratory design of this study only descriptive statistics were planned.
In the preliminary study, all forms were completed at the study site in the presence of the investigator. In Cohort 1 of the present study, the VABS-II, SRS-2, ABC-C and RBS-R were filled out at home by the patient/patient's families prior to treatment visits and returned at treatment visits in order to expedite the execution of the study. […]

CC(N)(Cc1ccc(O)cc1)C(=O)O (racemic) [L1-79, α-methyl-DL-tyrosine]
effect of longer treatment on core symptoms (patients with autism; open-label): greater magnitude of therapeutic benefits | ABC-C domains (patients with autism; open-label, 10 patients): consistent improvements | average reduction in the ADOS-2 (patients with autism; open-label, 10 patients, from 90 mg TID, minimum 3 months): 30% | ADOS-2 decrease in one child (loss of autism diagnosis) (patients with autism; open-label, one child): 60% | benefits after discontinuation (patients with autism; study drug discontinued): not all of the benefits regressed | changes from baseline EKGs ([1]; any of the patients): No clinically significant changes | patients who developed crystalluria ([1]; patients on L1-79, placebo 30%): 50% | concentration at 1 h [2]: 23 to 1680 ng/mL | RBS-R Compulsive Behavior Mean Change from Baseline ([3]; DB 100 mg TID): −1.2 | RBS-R Compulsive Behavior Treatment effect versus placebo ([3]; DB 100 mg TID): 0.3 | RBS-R Compulsive Behavior change, median ([3]; DB 100 mg TID): −2, 0, 1 | RBS-R Restricted Behavior Mean Change from Baseline ([3]; DB 100 mg TID): 1.3 | RBS-R Restricted Behavior Treatment effect versus placebo ([3]; DB 100 mg TID): 2.9 | RBS-R Restricted Behavior change, median ([3]; DB 100 mg TID): 0, 1, 1 | RBS-R Ritualistic Behavior Mean Change from Baseline ([3]; DB 100 mg TID): 0.1 | RBS-R Ritualistic Behavior Treatment effect versus placebo ([3]; DB 100 mg TID): 3.8 | RBS-R Ritualistic Behavior change, median ([3]; DB 100 mg TID): −1, 0, 2 | RBS-R Sameness Behavior Mean Change from Baseline ([3]; DB 100 mg TID): −0.7 | RBS-R Sameness Behavior Treatment effect versus placebo ([3]; DB 100 mg TID): 2.2 | RBS-R Sameness Behavior change, median ([3]; DB 100 mg TID): −1, −1, 0 | RBS-R Self Injurious Behavior Mean Change from Baseline ([3]; DB 100 mg TID): −2.2 | RBS-R Self Injurious Behavior Treatment effect versus placebo ([3]; DB 100 mg TID): −0.1 | RBS-R Self Injurious Behavior change, median ([3]; DB 100 mg TID): −2, 0, 0 | RBS-R Stereotypic Behavior Mean Change from Baseline ([3]; DB 100 mg TID): −0.6 | RBS-R Stereotypic Behavior Treatment effect versus placebo ([3]; DB 100 mg TID): −0.1 | RBS-R Stereotypic Behavior change, median ([3]; DB 100 mg TID): 0, 0, 0 | RBS-R Total Score Mean Change from Baseline ([3]; DB 100 mg TID): −3.2 | RBS-R Total Score Treatment effect versus placebo ([3]; DB 100 mg TID): 7.8 | RBS-R Total Score change, median ([3]; DB 100 mg TID): −6, −4, −1 | RBS-R Compulsive Behavior Mean Change from Baseline ([3]; DB 200 mg TID): −2.7 | RBS-R Compulsive Behavior Treatment effect versus placebo ([3]; DB 200 mg TID): −1.2 | RBS-R Compulsive Behavior change, median ([3]; DB 200 mg TID): −3, 0, 0 | RBS-R Restricted Behavior Mean Change from Baseline ([3]; DB 200 mg TID): −2.5 | RBS-R Restricted Behavior Treatment effect versus placebo ([3]; DB 200 mg TID): −1.0 | RBS-R Restricted Behavior change, median ([3]; DB 200 mg TID): −5, −1, 0 | RBS-R Ritualistic Behavior Mean Change from Baseline ([3]; DB 200 mg TID): −3.1 | RBS-R Ritualistic Behavior Treatment effect versus placebo ([3]; DB 200 mg TID): 0.6 | RBS-R Ritualistic Behavior change, median ([3]; DB 200 mg TID): −5, −1, 0 | RBS-R Sameness Behavior Mean Change from Baseline ([3]; DB 200 mg TID): 4.2 | RBS-R Sameness Behavior Treatment effect versus placebo ([3]; DB 200 mg TID): −1.3 | RBS-R Sameness Behavior change, median ([3]; DB 200 mg TID): −9, 0, 0 | RBS-R Self Injurious Behavior Mean Change from Baseline ([3]; DB 200 mg TID): −1.7 | RBS-R Self Injurious Behavior Treatment effect versus placebo ([3]; DB 200 mg TID): 0.4 | RBS-R Self Injurious Behavior change, median ([3]; DB 200 mg TID): −1, 0, 0 | RBS-R Stereotypic Behavior Mean Change from Baseline ([3]; DB 200 mg TID): −1.8 | RBS-R Stereotypic Behavior Treatment effect versus placebo ([3]; DB 200 mg TID): −1.4 | RBS-R Stereotypic Behavior change, median ([3]; DB 200 mg TID): −5, 0, 0 | RBS-R Total Score Mean Change from Baseline ([3]; DB 200 mg TID): −16.1 | RBS-R Total Score Treatment effect versus placebo ([3]; DB 200 mg TID): −5.1 | RBS-R Total Score change, median ([3]; DB 200 mg TID): −28, −2, 0 | RBS-R Total Score compared to placebo ([3]; L1-79 200 mg): mean improvements | RBS-R Total Score responders (improvement or stabilization of symptoms) ([3]; L1-79 200 mg, placebo 78%): 91%
